# Results taken from the C3SDB collision cross section collection.
# Values joined by “and” are separate entries in the source; they are usually repeats but may differ in a detail not shown here. Equal entries are not always repeated.
# Key:
# [1] = instrument: DT, single field, calibrated with Agilent tune mix (Agilent)
# [2] = instrument: TW, calibrated with polyalanine and drug standards
# [3] = instrument: DT, single field, calibrated with ESI Low Concentration Tuning Mix (Agilent)
smiles,measurement,setting,value
NC(Cc1ccccc1O)C(=O)O (racemic) [DL-O-tyrosine],collision cross section (N2),[1]; [M+H]+,141.4 Å²
same,collision cross section (N2),[1]; [M-H]-,134.25 Å²
"Cn1c(=O)[nH]c2[nH]c(=O)n(C)c2c1=O [1,7-Dimethyluric acid]",collision cross section (N2),[1]; [M-H]-,134.06 Å²
CC(=O)[C@@H](O)[C@H](O)COP(=O)(O)O [1-Deoxy-D-xylulose 5-phosphate],collision cross section (N2),[1]; [M+Na]+,144.9 Å²
same,collision cross section (N2),[1]; [M-H]-,134.48 Å²
C[n+]1cccc(C(N)=O)c1 [1-Methylnicotinamide],collision cross section (N2),[1]; [M]+,126.4 Å²
Nc1ccn([C@H]2C[C@H](O)[C@@H](COP(=O)(O)OP(=O)(O)O)O2)c(=O)n1 [2'-Deoxycytidine diphosphate],collision cross section (N2),[1]; [M+Na]+,174.5 Å²
same,collision cross section (N2),[1]; [M-H]-,170.97 Å²
Nc1nc(=O)c2ncn([C@H]3C[C@H](O)[C@@H](COP(=O)(O)O)O3)c2[nH]1 [2'-Deoxyguanosine 5'-monophosphate],collision cross section (N2),[1]; [M+Na-2H]-,167.93 Å²
same,collision cross section (N2),[1]; [M+Na]+,169.7 Å²
O=c1nc[nH]c2c1ncn2[C@H]1C[C@H](O)[C@@H](COP(=O)(O)O)O1 [2'-Deoxyinosine 5'-monophosphate],collision cross section (N2),[1]; [M+Na-2H]-,161.59 Å²
same,collision cross section (N2),[1]; [M+Na]+,166.8 Å²
CO[C@@H]1[C@H](O)[C@@H](CO)O[C@H]1n1cnc2c(N)ncnc21 [2'-O-methyladenosine],collision cross section (N2),[1]; [M+Na]+,168.7 Å²
same,collision cross section (N2),[1]; [M-H]-,158.37 Å²
O=C(O)CNC(=O)c1ccco1 [2-Furoylglycine],collision cross section (N2),[1]; [M-H]-,134.65 Å²
CC(C)C(O)C(=O)O (configuration not stated) [2-Hydroxy-3-methylbutyric acid],collision cross section (N2),[1]; [M-H]-,118.65 Å²
Nc1[nH]c(=O)nc2nc[nH]c12 [2-Hydroxyadenine],collision cross section (N2),[1]; [M+H]+,127 Å²
same,collision cross section (N2),[1]; [M-H]-,121.04 Å²
CC(C)C(O)(CC(=O)O)C(=O)O (configuration not stated) [2-Isopropylmalic acid],collision cross section (N2),[1]; [M+Na]+,140.9 Å²
same,collision cross section (N2),[1]; [M-H]-,128.12 Å²
CC(CCC(=O)O)C(=O)O (configuration not stated) [2-Methylglutaric acid],collision cross section (N2),[1]; [M-H]-,123.84 Å²
CO[C@H]1[C@@H](O)[C@H](n2cnc3c(=O)nc(N)[nH]c32)O[C@@H]1CO [3'-O-methylguanosine],collision cross section (N2),[1]; [M+Na]+,178.1 Å²
same,collision cross section (N2),[1]; [M-H]-,163.78 Å²
"O=C(O)c1ccc([O-])c(O)c1 [3,4-Dihydroxybenzoate]",collision cross section (N2),[1]; [M-H]-,120.45 Å²
"Cn1c(=O)[nH]c(=O)c2c1[nH]c(=O)n2C [3,7-Dimethyluric acid]",collision cross section (N2),[1]; [M-H]-,133.95 Å²
O=C(O)CCc1cccc(O)c1 [3-(3-Hydroxyphenyl)propanoic acid],collision cross section (N2),[1]; [M-H]-,136.11 Å²
Nc1c(O)cccc1C(=O)C[C@H](N)C(=O)O [3-Hydroxy-L-kynurenine],collision cross section (N2),[1]; [M+H-H2O]+,137.5 Å²
O=C(O)c1cccc([O-])c1 [3-Hydroxybenzoate],collision cross section (N2),[1]; [M-H]-,125.4 Å²
CC(C)[C@H](C(=O)O)[C@@H](O)C(=O)O [3-Isopropylmalate],collision cross section (N2),[1]; [M-H]-,127.46 Å²
Cn1cncc1C[C@H](N)C(=O)O [3-Methylhistidine],collision cross section (N2),[1]; [M+H]+,134.1 Å²
same,collision cross section (N2),[1]; [M-H]-,134.37 Å²
Cn1c(=O)ccn([C@@H]2O[C@H](CO)[C@@H](O)[C@H]2O)c1=O [3-Methyluridine],collision cross section (N2),[1]; [M+Na]+,164.2 Å²
same,collision cross section (N2),[1]; [M-H]-,166.84 Å²
Cn1c(=O)[nH]c(=O)c2[nH]cnc21 [3-Methylxanthine],collision cross section (N2),[1]; [M-H]-,124.48 Å²
Nc1ccc(C(=O)[O-])cc1 [4-Aminobenzoate],collision cross section (N2),[1]; [M+H]+,140.4 Å²
COc1ccc(/C=C/C(=O)O)cc1 [4-Methoxycinnamic acid],collision cross section (N2),[1]; [M+H]+,140.8 Å²
same,collision cross section (N2),[1]; [M-H]-,146.28 Å²
NC(=O)CCCCC1CCSS1 (configuration not stated) [LIPOAMIDE],collision cross section (N2),[2]; [M+H]+,139.3 Å²
same,collision cross section (N2),[3]; [M+Na]+,150.4 Å²
CC(=O)N1CCC[C@H]1C(=O)O [N-ACETYLPROLINE],collision cross section (N2),[2]; [M+Na]+,136.9 Å²
same,collision cross section (N2),[3]; [M+Na]+,140.3 Å²
same,collision cross section (N2),[3]; [M-H]-,133.7 Å²
CC1=C(/C=C/C(C)=C/C=C/C(C)=C/C(=O)O)C(C)(C)CCC1 [RETINOATE],collision cross section (N2),[3]; [M+Na]+,181.9 Å²
Nc1ncnc2c1ncn2[C@@H]1O[C@H](CSCC[C@H](N)C(=O)O)[C@@H](O)[C@H]1O [S-ADENOSYLHOMOCYSTEINE],collision cross section (N2),[3]; [M+H]+,182.9 Å²
same,collision cross section (N2),[3]; [M+Na-2H]-,180.3 Å²
same,collision cross section (N2),[3]; [M+Na]+,189 Å²
same,collision cross section (N2),[3]; [M-H]-,186.4 Å²
C[S+](CC[C@H](N)C(=O)[O-])C[C@H]1O[C@@H](n2cnc3c(N)ncnc32)[C@H](O)[C@@H]1O (some centres not stated) [S-ADENOSYLMETHIONINE],collision cross section (N2),[3]; [M+H]+,185.7 Å²
CCCCCCSC[C@H](NC(=O)CC[C@H](N)C(=O)O)C(=O)NCC(=O)O [S-HEXYL-GLUTATHIONE],collision cross section (N2),[3]; [M+H]+,200.5 Å²
same,collision cross section (N2),[3]; [M+Na-2H]-,192.4 Å²
same,collision cross section (N2),[3]; [M+Na]+,200.9 Å²
same,collision cross section (N2),[3]; [M-H]-,189 Å²
O=C(O)[C@@H](O)[C@@H](O)[C@H](O)[C@@H](O)C(=O)O [SACCHARATE],collision cross section (N2),[3]; [M+K]+,148.8 Å²
same,collision cross section (N2),[3]; [M+Na-2H]-,137.3 Å²
same,collision cross section (N2),[3]; [M+Na]+,148.3 Å²
same,collision cross section (N2),[3]; [M-H]-,133.3 Å²
O=C(O)CCCCCCCCC(=O)O [SEBACATE],collision cross section (N2),[3]; [M+Na-2H]-,146 Å²
same,collision cross section (N2),[3]; [M+Na]+,152.7 Å²
C[Se]CCC(N)C(=O)O (configuration not stated) [SELENOMETHIONINE],collision cross section (N2),[3]; [M+H]+,135.2 Å²
same,collision cross section (N2),[3]; [M+Na]+,138.1 Å²
same,collision cross section (N2),[3]; [M-H]-,149.9 Å²
NCCc1c[nH]c2ccc(O)cc12 [SEROTONIN],collision cross section (N2),[3]; [M+Na]+,146.9 Å²
O=C(O)C1=C[C@@H](O)[C@@H](O)[C@H](O)C1 [SHIKIMATE],collision cross section (N2),[3]; [M-H]-,136.3 Å²
Cc1ncc(C[n+]2csc(CCOP(=O)(O)O)c2C)c(N)n1 [THIAMINE MONOPHOSPHATE],collision cross section (N2),[3]; [M+H]+,171 Å²
same,collision cross section (N2),[3]; [M+Na-2H]-,174.3 Å² and 180.2 Å²
same,collision cross section (N2),[3]; [M+Na]+,176.9 Å²
C[n+]1cccc(C(=O)[O-])c1 [TRIGONELLINE],collision cross section (N2),[2]; [M+H]+,122.4 Å²
same,collision cross section (N2),[3]; [M+H]+,124 Å²
same,collision cross section (N2),[3]; [M+Na]+,135.9 Å²
N[C@@H](Cc1ccc(O)cc1)C(=O)O [TYROSINE],collision cross section (N2),[3]; [M+H]+,145.8 Å²
same,collision cross section (N2),[3]; [M+Na]+,143.6 Å²
same,collision cross section (N2),[3]; [M-H]-,143.8 Å²
O=c1cc[nH]c(=O)[nH]1 [URACIL],collision cross section (N2),[3]; [M-H]-,112.9 Å²
O=c1ccn([C@@H]2O[C@H](COP(=O)(O)OP(=O)(O)O)[C@@H](O)[C@H]2O)c(=O)[nH]1 [URIDINE 5'-DIPHOSPHATE],collision cross section (N2),[3]; [M+H]+,176.9 Å²
same,collision cross section (N2),[3]; [M+Na-2H]-,178.6 Å²
same,collision cross section (N2),[3]; [M+Na]+,178.5 Å² and 181.7 Å²
same,collision cross section (N2),[3]; [M-H]-,172.9 Å²
O=C(O)[C@H]1O[C@H](OP(=O)(O)OP(=O)(O)OC[C@H]2O[C@@H](n3ccc(=O)[nH]c3=O)[C@H](O)[C@@H]2O)[C@H](O)[C@@H](O)[C@@H]1O [URIDINE DIPHOSPHATE GLUCURONIC ACID],collision cross section (N2),[3]; [M+Na-2H]-,204.6 Å²
same,collision cross section (N2),[3]; [M+Na]+,211 Å²
same,collision cross section (N2),[3]; [M-H]-,211.9 Å²
C[C@H](CCC(=O)O)[C@H]1CC[C@H]2[C@@H]3[C@@H](O)C[C@@H]4C[C@H](O)CC[C@]4(C)[C@H]3CC[C@]12C [URSODEOXYCHOLATE],collision cross section (N2),[3]; [M+Na]+,198.7 Å²
same,collision cross section (N2),[3]; [M-H]-,200.9 Å²
